Measurements taken from patent publication US12611439B2, “Ionic self-assembling peptides” (3-D MATRIX, LTD., priority 2018, dated 2026).
Peptide text beside a SMILES is read from it.

Legend:
[1] = Viscosity determination at increasing shear rate (shear thinning); format: physicochemical; conditions: pH 7.5
Method: Peptides formulated as aqueous solutions (200 μL), were placed between the plates of a rheometer (DHR-1, TA Instruments, 20 mm plates at a measuring geometry of 500 μm) and the viscosity was measured from 0.001 s^−1 to 100 s^−1 shear rate. Thixotropic Measurements
In some clinical applications, administration of pharmaceutical compositions comprising self-assembling peptides requires exposing the compositions to pressure and/or shear thinning (e.g., during injection through a syringe needle or transferred via a pump-based system). […] To determine the shear thinning properties of pharmaceutical compositions of the self-assembling peptides formulated at pH 7.5, formulations comprising varying ionic strengths were prepared using different concentrations of sodium chloride, and viscosity measured at increasing shear rates. Thixotropic properties of formulations were also determined as well as the storage modulus over time at specific frequencies and pressure.
FIGS. 6-8 show the experimentally determined viscosity of aqueous pharmaceutical compositions comprising either 1% (w/v) KLNL12 (SEQ ID NO:21), 1% (w/v) IQIK13 (SEQ ID NO:28), or 1% (w/v) NLEL12 (SEQ ID NO:33), at pH 7.5. FIGS. 9 and 10 show the experimentally determined viscosity of aqueous pharmaceutical compositions comprising either 1% KLNL12 (SEQ ID NO:21) or 1% NLEL12 (SEQ ID NO:33), and 0.9% NaCl (to mimic physiological conditions) at pH 7.5. […] That is, decreased viscosity with increasing sheer rate. This property may advantageously facilitate application and use of the pharmaceutical compositions (e.g., due to decreased viscosity while pumping) while maintaining a desirable viscosity at a site of application (e.g., where no sheer force is being applied).

porcine esophagus mucosa = assay: Submucosal injection in in vivo porcine esophagus; conditions: pig, in vivo
Method: In another embodiment, mucosal aggregation visualized as white precipitate near the injection site was evaluated in an in vivo porcine esophagus.

[2] = Thixotropic measurements (storage modulus after shear); format: physicochemical; conditions: 1% peptide, 0.9% NaCl, pH 7.5; 1000 1/s shear for 1 min
Method: Peptides formulated as aqueous solutions (200 μL), were placed between the plates of a rheometer (DHR-1, TA Instruments, 20 mm plates at a measuring geometry of 500 μm) and the sample was exposed to a fast plate rotation at 1000 s^−1 of shear rate for 1 minute and the storage modulus was measured at 1 rad s^−1 angular frequency for 10 minutes.
FIGS. 11 and 12 show the thixotropic properties of pharmaceutical compositions comprising 1% KLNL12 (SEQ ID NO:21) or 1% NLEL12 (SEQ ID NO:33), and 0.9% NaCl, at pH 7.5, after shear stress is removed. The aqueous pharmaceutical compositions were flowed at 1000 l/s of shear rate for 1 min and their storage modulus at 10 rad/s of frequency and at 0.1 Pa of stress was tested over time.

[3] = Frequency sweep test (storage modulus) before and after exposure to DMEM; format: physicochemical; conditions: 1% (w/v) peptide, pH 7.5
Method: Peptides formulated as aqueous solutions were placed between the plates of a rheometer (DHR-1, TA Instruments, 20 mm plates at a measuring geometry of 500 μm or 40 mm cone and plate at a measuring geometry of 2.0° of cone angle) and frequency stress sweep tests were performed at 0.1 Hz to 10 Hz of frequency with 0.1% of strain; measurements were performed after 2 minutes of relaxation time at 37° C. To do frequency sweep tests after exposure to Dulbecco's Modified Eagle Medium (DMEM), 10 mL of DMEM was added in chamber surrounding the plates, the sample in plates was submerged into the DMEM and the frequency test was performed as described after 20 minutes.
Rheological properties of aqueous pharmaceutical compositions comprising the exemplary self-assembling peptides KLNL12 (SEQ ID NO:21), KIQI13 (SEQ ID NO:29), or NLEL12 (SEQ ID NO:33) were determined by performing a frequency sweep test over storage modulus.
In some embodiments, peptides formulated as aqueous solutions, volume 700 μl, were placed between the plates of a rheometer (DHR-1, TA Instruments, 40 mm cone and plate at a measuring geometry of 2.0° of cone angle) and frequency sweep tests were performed at 0.1 Hz to 10 Hz of frequency with 0.1% of strain; measurements were performed after 2 minutes of relaxation time at 37° C. In some embodiments, frequency sweep tests were performed after exposure to Dulbecco's Modified Eagle Medium (DMEM), where 10 mL of DMEM was added in chamber surrounding the plates, the sample in plates was submerged into the DMEM and the frequency test was performed as described after 20 minutes.

[4] = Net charge of self-assembling peptides in solution; format: physicochemical; conditions: for net charge as a function of pH: around neutral pH; for Net charge at pH 7.5: in solution at pH 7.5
Description: Several exemplary self-assembling peptides described herein (Table 5; SEQ ID NO:21-40) were designed to have a net charge, positive or negative, when formulated at pH 7.5. In contrast, previously-described self-assembling peptides have a net zero charge at the same pH.

pig stomach submucosa = assay: Submucosal injection in in vivo porcine model, stomach; conditions: 2 mL of 0.1% (w/v) peptide, 0.9% NaCl, pH 7.5; pig stomach
Method: An in vivo porcine animal model was used to perform endoscopic mucosal and submucosal dissections as described in Uraoka et al. (2009) Drug Des. Devel. Ther. 2:131-8, incorporated herein by reference. Briefly, 2 mL of select peptide formulations were injected in between the […] in stomach of a pig and the submucosa was dissected using electro-knife. The gross appearance of the injection site and of dissected submucosal tissues at the injection sites were analyzed. […] Therefore, an in vivo porcine model system was used to assess the ability of these compositions to induce submucosal elevation upon injection into gastrointestinal submucosa, and the degree of tissue damage. In this model, submucosal injections with liquid compositions were performed and the morphology of the site of injection analyzed. Submucosal injection with aqueous solutions is used during the excision of lesions from the gastrointestinal tract in order to facilitate removal of the lesion by providing a safety cushion during resection (see, e.g., Kim et al. (2013) World J. Gastroenterol. 19(20): 3069-76, incorporated herein by reference). Here, aqueous pharmaceutical compositions comprising three exemplary self-assembling peptides formulated at pH 7.5: KLNL12 (SEQ ID NO:21), NLKL12 (SEQ ID NO:23) or KIQI13 (SEQ ID NO:29), were compared to an aqueous pharmaceutical composition comprising the previously described RADA16 self-assembling peptide (formulated at pH 2.5), a 0.4% solution of sodium hyaluronate (MucoUp®, Boston Scientific Japan K.K., Tokyo, Japan), and saline, pH 7.5.

Compound	viscosity in response to increasing shear rate ([1]; 1% (w/v) peptide)	viscosity in response to increasing shear rate ([1]; 1% peptide, 0.9% NaCl)	mucosal aggregation at injection sites (porcine esophagus mucosa)	Appearance of stomach mucosa (porcine esophagus mucosa; pH 7.5)	thixotropic properties (storage modulus over time after shear stress is removed) [2]	rheological properties (mechanical strength) before and after exposure to DMEM ([3]; 0.9% NaCl)	rheological properties (mechanical strength) before and after exposure to DMEM [3]	net charge as a function of pH [4]	Net charge at pH 7.5 [4]	submucosal elevation after injection (pig stomach submucosa)	submucosal elevation over time compared with saline and MucoUp (pig stomach submucosa)
CC(=O)N[C@@H](CC(N)=O)C(=O)N[C@@H](CC(C)C)C(=O)N[C@@H](CCC(=O)O)C(=O)N[C@@H](CC(C)C)C(=O)N[C@@H](CC(N)=O)C(=O)N[C@@H](CC(C)C)C(=O)N[C@@H](CCC(=O)O)C(=O)N[C@@H](CC(C)C)C(=O)N[C@@H](CC(N)=O)C(=O)N[C@@H](CC(C)C)C(=O)N[C@@H](CCC(=O)O)C(=O)N[C@@H](CC(C)C)C(N)=O [NLEL12, Ac-NLELNLELNLEL-NH2] (Ac-NLELNLELNLEL-NH2)	exhibit sheer thinning	exhibit sheer thinning	mucosal aggregation was not observed	clear/transparent	exhibited thixotropic properties	increased after DMEM treatment	increased after DMEM treatment	about −3	−3	–	–
CC(=O)N[C@@H](CCCCN)C(=O)N[C@@H](CC(C)C)C(=O)N[C@@H](CC(N)=O)C(=O)N[C@@H](CC(C)C)C(=O)N[C@@H](CCCCN)C(=O)N[C@@H](CC(C)C)C(=O)N[C@@H](CC(N)=O)C(=O)N[C@@H](CC(C)C)C(=O)N[C@@H](CCCCN)C(=O)N[C@@H](CC(C)C)C(=O)N[C@@H](CC(N)=O)C(=O)N[C@@H](CC(C)C)C(N)=O [KLNL12, Ac-KLNLKLNLKLNL-NH2] (Ac-KLNLKLNLKLNL-NH2)	exhibit sheer thinning	exhibit sheer thinning	–	–	exhibited thixotropic properties	increased after DMEM treatment	increased after DMEM treatment	about +3	+3	resulted in submucosal elevation	better submucosal elevation than saline and MucoUp®
